# In article PMC3399817 (PLoS ONE, 2012):
# Key:
# [1] = molecular target: T1, ACVR2B (Homo sapiens, UniProt Q13705); experiment: KINOMEscan; assay type: binding; settings: 1 uM
# T1 construct: purchased Ambit KINOMEscan (DiscoverX)
# In short: (§1)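 Compounds were each tested at a single concentration of 1 μM in a binding-based kinase panel.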
# [2] = molecular target: T2, BMX (Homo sapiens, UniProt P51813); experiment: KINOMEscan; assay type: binding; settings: 1 uM
# T2 construct: purchased Ambit KINOMEscan (DiscoverX)
# T2 sequence (P51813 whole entry): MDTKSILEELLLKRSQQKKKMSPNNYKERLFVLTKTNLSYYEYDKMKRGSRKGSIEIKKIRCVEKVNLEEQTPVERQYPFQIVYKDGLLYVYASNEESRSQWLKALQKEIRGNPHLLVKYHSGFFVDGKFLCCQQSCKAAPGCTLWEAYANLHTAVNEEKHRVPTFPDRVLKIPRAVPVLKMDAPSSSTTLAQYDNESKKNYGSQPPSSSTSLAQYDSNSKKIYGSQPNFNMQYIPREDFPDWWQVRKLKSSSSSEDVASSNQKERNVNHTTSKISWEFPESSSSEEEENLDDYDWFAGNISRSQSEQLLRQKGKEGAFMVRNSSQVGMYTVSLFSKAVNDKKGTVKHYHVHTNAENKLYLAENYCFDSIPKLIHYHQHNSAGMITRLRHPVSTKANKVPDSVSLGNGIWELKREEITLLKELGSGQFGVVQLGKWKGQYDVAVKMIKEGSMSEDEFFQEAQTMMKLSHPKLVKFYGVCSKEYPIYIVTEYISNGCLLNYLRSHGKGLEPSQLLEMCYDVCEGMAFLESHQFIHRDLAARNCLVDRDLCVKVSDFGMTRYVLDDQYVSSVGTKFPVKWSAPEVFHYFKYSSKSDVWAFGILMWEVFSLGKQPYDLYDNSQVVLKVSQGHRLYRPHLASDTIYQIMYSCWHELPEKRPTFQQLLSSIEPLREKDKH
# In short: as §1
# [3] = molecular target: T3, MAP4K2 (Homo sapiens, UniProt Q12851); experiment: SelectScreen in vitro kinase IC50; assay type: biochemical; settings: Fig. S5
# T3 construct: purchased Ambit KINOMEscan (DiscoverX)
# T3 sequence (Q12851 1-820): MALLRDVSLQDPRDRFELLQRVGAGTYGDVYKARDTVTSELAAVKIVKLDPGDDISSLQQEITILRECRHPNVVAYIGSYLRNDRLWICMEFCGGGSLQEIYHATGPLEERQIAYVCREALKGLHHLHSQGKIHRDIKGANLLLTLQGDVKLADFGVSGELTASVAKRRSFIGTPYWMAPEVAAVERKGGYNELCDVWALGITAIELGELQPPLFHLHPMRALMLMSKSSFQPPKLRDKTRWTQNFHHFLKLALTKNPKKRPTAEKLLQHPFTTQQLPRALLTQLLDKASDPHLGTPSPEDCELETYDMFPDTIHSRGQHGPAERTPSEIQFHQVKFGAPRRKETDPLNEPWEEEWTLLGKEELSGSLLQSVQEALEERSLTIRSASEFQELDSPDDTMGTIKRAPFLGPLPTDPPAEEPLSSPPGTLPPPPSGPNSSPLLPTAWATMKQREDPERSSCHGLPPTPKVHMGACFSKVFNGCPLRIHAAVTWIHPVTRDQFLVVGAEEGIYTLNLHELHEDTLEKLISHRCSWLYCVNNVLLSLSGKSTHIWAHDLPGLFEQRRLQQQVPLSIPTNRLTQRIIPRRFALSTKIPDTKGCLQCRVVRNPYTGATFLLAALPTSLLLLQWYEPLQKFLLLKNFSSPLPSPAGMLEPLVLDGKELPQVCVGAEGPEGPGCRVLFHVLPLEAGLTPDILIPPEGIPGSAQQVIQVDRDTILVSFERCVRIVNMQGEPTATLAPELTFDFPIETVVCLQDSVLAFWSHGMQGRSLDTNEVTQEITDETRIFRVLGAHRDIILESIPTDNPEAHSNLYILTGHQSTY
# Experimental: (§2) First, we used Ambit's KINOMEscan™ technology to identify those kinases that are inhibited for substrate binding by the compounds, all assayed at 1 μM. Second, we used Invitrogen's SelectScreen® Biochemical Kinase Profiling Service to determine the in vitro IC50s for the compounds against specific kinases.
# [4] = tested on: HKe-3 (K-RAS^−/+); experiment: Cell viability (Syto60); assay type: cell-based; settings: 72 hours; for cooperation with / sensitization to AZ-628 (cell viability): K-RAS wild-type cells (HKe-3), 1 µM AZ-628
# Experimental: All colon cancer cell lines were maintained in DMEM supplemented with penicillin (100 units/mL), streptomycin (100 μg/mL), and 10% fetal bovine serum (FBS). The rectal cancer cell line (Car1) was maintained in DMEM/F12 supplemented with penicillin (100 units/mL)/streptomycin (50 μg/mL), and 5% FBS. […] The target sequences for knockdowns can be found in Table S2. In drug treatment experiments, cells were plated for 24 hours prior to exposure to drug. AZ-628 was obtained from AstraZeneca. CI-1040 was obtained from Pfizer. R406 was synthesized in the Gray laboratory. BAY61-3606 and IKK VII were purchased from EMD Biosciences. BAY derivatives were synthesized for this study.
# Cell cycle analysis was performed via FACS-based propidium iodide quantification, using standard methods. To measure cell viability, cells were grown in 96-well plates in the presence or absence of drug for 72 hours, fixed with 4% paraformaldehyde, and then stained with Syto60 (Invitrogen). Plates were imaged and quantified using the LiCor Odyssey system (LiCor).
# [5] = molecular target: T4, HIPK1 (Homo sapiens, UniProt Q86Z02); experiment: SelectScreen in vitro kinase IC50; assay type: biochemical
# T4 construct: purchased Ambit KINOMEscan (DiscoverX)
# T4 sequence (Q86Z02 whole entry): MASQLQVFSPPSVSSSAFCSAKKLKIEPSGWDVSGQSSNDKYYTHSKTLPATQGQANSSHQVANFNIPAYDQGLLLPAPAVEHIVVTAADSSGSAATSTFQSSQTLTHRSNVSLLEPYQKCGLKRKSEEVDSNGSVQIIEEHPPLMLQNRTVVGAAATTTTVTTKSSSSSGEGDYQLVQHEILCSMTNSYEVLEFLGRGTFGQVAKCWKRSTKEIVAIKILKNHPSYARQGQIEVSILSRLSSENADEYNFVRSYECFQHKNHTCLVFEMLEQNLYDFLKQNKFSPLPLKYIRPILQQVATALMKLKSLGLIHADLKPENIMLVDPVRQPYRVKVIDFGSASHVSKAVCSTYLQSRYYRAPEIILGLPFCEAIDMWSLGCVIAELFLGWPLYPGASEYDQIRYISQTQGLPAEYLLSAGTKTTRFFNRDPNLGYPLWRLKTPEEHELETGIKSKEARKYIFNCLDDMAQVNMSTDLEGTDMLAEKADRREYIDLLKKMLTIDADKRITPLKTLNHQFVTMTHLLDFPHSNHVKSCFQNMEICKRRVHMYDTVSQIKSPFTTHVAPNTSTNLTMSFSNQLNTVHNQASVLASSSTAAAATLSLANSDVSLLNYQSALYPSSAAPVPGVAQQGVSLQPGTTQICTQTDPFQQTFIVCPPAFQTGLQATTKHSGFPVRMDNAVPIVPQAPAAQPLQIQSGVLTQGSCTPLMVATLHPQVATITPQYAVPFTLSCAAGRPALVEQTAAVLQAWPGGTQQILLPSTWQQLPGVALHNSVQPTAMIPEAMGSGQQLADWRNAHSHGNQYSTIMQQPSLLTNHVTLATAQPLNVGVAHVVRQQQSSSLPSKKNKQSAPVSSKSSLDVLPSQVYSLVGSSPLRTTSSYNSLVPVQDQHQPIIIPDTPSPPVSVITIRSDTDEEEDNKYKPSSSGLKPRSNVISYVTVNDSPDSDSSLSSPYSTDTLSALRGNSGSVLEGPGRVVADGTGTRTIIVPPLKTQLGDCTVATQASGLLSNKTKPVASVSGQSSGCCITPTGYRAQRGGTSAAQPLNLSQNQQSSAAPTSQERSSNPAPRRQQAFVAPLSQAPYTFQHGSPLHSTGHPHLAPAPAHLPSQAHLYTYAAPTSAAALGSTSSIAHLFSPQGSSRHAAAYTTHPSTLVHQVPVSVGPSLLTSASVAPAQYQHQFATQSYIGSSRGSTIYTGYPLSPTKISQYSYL
# Experimental: as §2
# [6] = molecular target: T5, NEK1 (Homo sapiens, UniProt Q96PY6); experiment: SelectScreen in vitro kinase IC50; assay type: biochemical
# T5 construct: purchased Ambit KINOMEscan (DiscoverX)
# T5 sequence (Q96PY6 1-1258): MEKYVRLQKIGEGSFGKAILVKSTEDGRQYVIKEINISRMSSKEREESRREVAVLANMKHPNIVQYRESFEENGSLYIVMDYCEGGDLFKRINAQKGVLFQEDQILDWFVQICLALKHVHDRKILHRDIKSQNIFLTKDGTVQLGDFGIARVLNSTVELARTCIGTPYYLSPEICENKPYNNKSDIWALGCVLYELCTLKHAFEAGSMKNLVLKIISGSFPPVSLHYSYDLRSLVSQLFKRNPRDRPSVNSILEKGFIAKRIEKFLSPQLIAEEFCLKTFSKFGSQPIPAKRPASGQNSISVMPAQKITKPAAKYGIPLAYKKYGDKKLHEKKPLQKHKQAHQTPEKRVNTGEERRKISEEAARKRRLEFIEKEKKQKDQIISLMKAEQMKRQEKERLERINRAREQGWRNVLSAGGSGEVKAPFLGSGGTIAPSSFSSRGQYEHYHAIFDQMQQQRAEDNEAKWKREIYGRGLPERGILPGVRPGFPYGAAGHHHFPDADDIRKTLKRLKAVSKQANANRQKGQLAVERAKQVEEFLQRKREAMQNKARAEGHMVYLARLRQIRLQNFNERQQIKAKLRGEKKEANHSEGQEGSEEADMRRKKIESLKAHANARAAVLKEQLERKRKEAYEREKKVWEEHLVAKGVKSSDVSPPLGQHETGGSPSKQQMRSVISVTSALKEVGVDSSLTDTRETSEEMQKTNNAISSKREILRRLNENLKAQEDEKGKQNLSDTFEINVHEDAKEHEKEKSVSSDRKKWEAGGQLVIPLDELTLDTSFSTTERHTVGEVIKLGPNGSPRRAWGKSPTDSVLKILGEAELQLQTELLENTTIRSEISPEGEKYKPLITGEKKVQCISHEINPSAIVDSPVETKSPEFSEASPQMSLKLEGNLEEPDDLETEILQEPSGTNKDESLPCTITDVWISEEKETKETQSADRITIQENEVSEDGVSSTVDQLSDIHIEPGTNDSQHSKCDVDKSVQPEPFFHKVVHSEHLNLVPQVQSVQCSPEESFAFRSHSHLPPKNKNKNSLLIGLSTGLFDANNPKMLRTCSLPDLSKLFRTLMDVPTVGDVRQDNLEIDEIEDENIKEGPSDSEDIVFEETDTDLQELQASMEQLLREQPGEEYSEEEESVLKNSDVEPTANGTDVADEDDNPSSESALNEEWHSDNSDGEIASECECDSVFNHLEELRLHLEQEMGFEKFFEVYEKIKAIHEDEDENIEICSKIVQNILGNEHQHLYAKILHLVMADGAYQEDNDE
# Experimental: as §2
# [7] = tested on: B cell migration; design: method as in PMID 21123826; settings: mice ref 15; cited from earlier work
# T1 sequence (Q13705 19-512): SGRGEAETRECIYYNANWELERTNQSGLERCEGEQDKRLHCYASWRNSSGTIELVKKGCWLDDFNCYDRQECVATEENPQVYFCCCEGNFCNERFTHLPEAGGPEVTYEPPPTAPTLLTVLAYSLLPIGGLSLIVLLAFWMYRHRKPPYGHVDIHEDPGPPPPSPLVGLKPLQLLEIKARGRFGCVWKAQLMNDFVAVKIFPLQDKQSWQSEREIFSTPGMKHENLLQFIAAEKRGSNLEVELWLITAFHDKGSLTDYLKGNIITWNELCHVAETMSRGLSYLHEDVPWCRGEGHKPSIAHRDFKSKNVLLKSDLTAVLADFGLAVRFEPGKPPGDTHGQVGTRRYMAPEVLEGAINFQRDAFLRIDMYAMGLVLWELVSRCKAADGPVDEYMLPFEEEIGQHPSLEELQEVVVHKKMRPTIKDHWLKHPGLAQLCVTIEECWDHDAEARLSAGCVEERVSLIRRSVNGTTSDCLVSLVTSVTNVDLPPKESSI
Compound,% binding compared to no inhibitor control [1] [%],% binding compared to no inhibitor control [2] [%],"in vitro kinase activity of MAP4K2, inhibition [3]",cooperation with / sensitization to AZ-628 (cell viability) [4],IC50 [5] [µM],IC50 [6] [nM],"sensitization to AZ-628 (cell viability) ([4]; HKe-3 cells with MAP4K2 knockdown, 1 µM + 1 µM AZ-628)",B cell migration [7]
COc1ccccc1Nc1nc(-c2ccc(OC)c(OC)c2)cc2nccn12 [BAY derivative 6],100,95,lost its ability to effectively inhibit the in vitro kinase activity of MAP4K2,lost its ability to cooperate with AZ-628,,,,
"COc1ccc(-c2cc3nccn3c(Nc3ncccc3C(N)=O)n2)cc1OC.Cl.Cl [BAY61-3606, 2-[7-(3,4-dimethoxyphenyl)-imidazo [1,2-c]pyrimidin-5-ylamino] nicotinamide dihydrochloride, reference compound]",77,95,,became sensitive,4.24,159,no longer sensitizes,suppresses
